Like-named read-outs stand apart in the source and are kept apart here. Bridge positions count the residues as written; N and C are the ends. Square brackets hold non-standard residues; d marks the D form. Peptide text beside a SMILES is read from it. Nle = CCCC[C@H](N)C(=O)O
Tests used:
[1] = molecular target: T1, human Kv1.3 voltage-gated K+ channel (Homo sapiens, UniProt P22001); assay: cell-based; conditions: inhibition of thallium flux, CHO-DUKX cells with human Kv1.3; read-out: IC50
T1 construct: host or cells: CHO-DUKX
T1 sequence (P22001 whole entry): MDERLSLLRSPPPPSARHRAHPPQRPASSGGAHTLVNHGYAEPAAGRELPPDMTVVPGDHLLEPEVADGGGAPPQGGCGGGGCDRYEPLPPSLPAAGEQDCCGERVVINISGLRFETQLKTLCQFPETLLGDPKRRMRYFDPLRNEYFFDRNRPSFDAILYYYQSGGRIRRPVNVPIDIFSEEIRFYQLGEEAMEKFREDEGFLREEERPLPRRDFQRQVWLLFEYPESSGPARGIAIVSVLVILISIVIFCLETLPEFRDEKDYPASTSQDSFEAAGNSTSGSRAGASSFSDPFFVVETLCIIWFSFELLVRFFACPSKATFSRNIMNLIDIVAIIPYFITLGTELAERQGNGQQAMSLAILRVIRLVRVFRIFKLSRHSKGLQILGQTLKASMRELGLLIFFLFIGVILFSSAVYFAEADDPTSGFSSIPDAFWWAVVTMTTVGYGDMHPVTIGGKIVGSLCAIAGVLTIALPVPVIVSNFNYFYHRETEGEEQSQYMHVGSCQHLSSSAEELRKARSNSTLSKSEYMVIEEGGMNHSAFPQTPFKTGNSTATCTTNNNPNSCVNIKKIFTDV

[2] = molecular target: Rat whole blood (Rattus norvegicus, UniProt P15384)
Sequence of Rat whole blood (P15384 whole entry): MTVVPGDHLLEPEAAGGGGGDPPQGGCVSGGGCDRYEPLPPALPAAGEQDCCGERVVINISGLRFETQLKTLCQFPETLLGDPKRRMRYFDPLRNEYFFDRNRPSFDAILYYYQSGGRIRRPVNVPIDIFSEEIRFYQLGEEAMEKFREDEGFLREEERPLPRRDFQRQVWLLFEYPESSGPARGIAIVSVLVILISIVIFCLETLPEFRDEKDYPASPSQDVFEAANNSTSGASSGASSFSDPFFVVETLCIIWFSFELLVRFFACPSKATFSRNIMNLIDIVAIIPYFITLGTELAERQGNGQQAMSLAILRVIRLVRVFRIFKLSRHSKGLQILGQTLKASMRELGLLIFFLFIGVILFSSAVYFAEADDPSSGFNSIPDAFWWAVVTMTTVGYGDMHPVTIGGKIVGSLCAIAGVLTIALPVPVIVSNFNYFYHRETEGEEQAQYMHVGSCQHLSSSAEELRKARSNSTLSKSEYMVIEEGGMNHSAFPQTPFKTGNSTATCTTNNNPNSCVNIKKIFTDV

[3] = inhibition of IL-17A release, thapsigargin, 24 Hr, at least 2 replicates

Compound	IC50 [1] [nM]	IC50 [2, 3] [nM]	IC50 [2] [nM]
CCCC[C@H](NC(=O)[C@H](CC(=O)O)NC(=O)[C@H](CCCC)NC(=O)[C@@H](N)CO)C(=O)N[C@@H](CCCNC(=N)N)C(=O)N[C@H]1CSSC[C@@H]2NC(=O)[C@H](CCCCN)NC(=O)CNC(=O)[C@H](Cc3ccccc3)NC(=O)[C@H]([C@@H](C)CC)NC(=O)[C@H](CO)NC(=O)CNC(=O)[C@H]([C@@H](C)CC)NC(=O)[C@H](C)NC(=O)[C@H](CCCCN)NC(=O)[C@H](CC(C)C)NC(=O)[C@@H]3CSSC[C@@H](C(=O)N[C@@H](Cc4ccc(O)cc4)C(=O)N[C@@H](CCC(N)=O)C(N)=O)NC(=O)[C@H](CCCCN)NC(=O)[C@H](CSSC[C@H](NC(=O)[C@H](CCC(=O)O)NC(=O)[C@H](C(C)C)NC(=O)[C@H](CO)NC(=O)[C@H](C)NC(=O)[C@H](CO)NC1=O)C(=O)N[C@@H](CCCCN)C(=O)N[C@@H](CCC(N)=O)C(=O)N[C@@H](CCCCN)C(=O)N3)NC(=O)[C@H](CCCCN)NC(=O)[C@H](CCCCN)NC(=O)[C@H](CC(N)=O)NC(=O)[C@H](CCSC)NC2=O [Compound 74] (H-S[Nle]D[Nle]RCSASVECKQKCLKAIGSIFGKCMNKKCKCYQ-NH2; disulfide 6-27, 12-32, 16-34)	0.36	1.6	–
CCCC[C@H](NC(=O)[C@H](CC(=O)O)NC(=O)[C@H](CCCC)NC(=O)[C@@H](N)CO)C(=O)N[C@@H](CCCNC(=N)N)C(=O)N[C@H]1CSSC[C@@H]2NC(=O)[C@H](CCCCN)NC(=O)CNC(=O)[C@H](Cc3ccccc3)NC(=O)[C@H]([C@@H](C)CC)NC(=O)[C@H](CO)NC(=O)CNC(=O)[C@H]([C@@H](C)CC)NC(=O)[C@H](C)NC(=O)[C@H](C(C)C)NC(=O)[C@H](CC(C)C)NC(=O)[C@@H]3CSSC[C@@H](C(=O)N[C@@H](Cc4ccc(O)cc4)C(=O)N4CCC[C@H]4C(=O)N[C@@H](CCCNC(=N)N)C(N)=O)NC(=O)[C@H](CCCCN)NC(=O)[C@H](CSSC[C@H](NC(=O)[C@H](CCC(=O)O)NC(=O)[C@H](C(C)C)NC(=O)[C@H](CO)NC(=O)[C@H](C)NC(=O)[C@H](CO)NC1=O)C(=O)N[C@@H](CCCCN)C(=O)N[C@@H](CCC(N)=O)C(=O)N[C@@H](CCCCN)C(=O)N3)NC(=O)[C@H](CCCCN)NC(=O)[C@H](CCCCN)NC(=O)[C@H](CC(N)=O)NC(=O)[C@H](CCSC)NC2=O [Compound 78] (H-S[Nle]D[Nle]RCSASVECKQKCLVAIGSIFGKCMNKKCKCYPR-NH2; disulfide 6-27, 12-32, 16-34)	0.12	0.39	≤ 1
CCCC[C@@H]1NC(=O)[C@@H]2CSSC[C@H](NC(=O)[C@H](CCCNC(=N)N)NC(=O)[C@H](CCCC)NC(=O)[C@H](CC(=O)O)NC(=O)[C@H](CCCC)NC(=O)[C@@H](N)CO)C(=O)N[C@@H](CO)C(=O)N[C@@H](C)C(=O)N[C@@H](CO)C(=O)N[C@@H](C(C)C)C(=O)N[C@@H](CCC(=O)O)C(=O)N[C@H]3CSSC[C@H](NC(=O)[C@H](CCCCN)NC(=O)[C@H](CCCCN)NC(=O)[C@H](CC(N)=O)NC1=O)C(=O)N[C@@H](CCCCN)C(=O)N[C@H](C(=O)N[C@@H](Cc1ccc(O)cc1)C(=O)N1CCC[C@H]1C(=O)N[C@@H](CCCNC(=N)N)C(=O)O)CSSC[C@H](NC(=O)[C@H](CCCCN)NC(=O)[C@H](CCC(N)=O)NC(=O)[C@H](CCCCN)NC3=O)C(=O)N[C@@H](CC(C)C)C(=O)N[C@@H](CCCCN)C(=O)N[C@@H](C)C(=O)N[C@@H]([C@@H](C)CC)C(=O)NCC(=O)N[C@@H](CO)C(=O)N[C@@H]([C@@H](C)CC)C(=O)N[C@@H](Cc1ccccc1)C(=O)NCC(=O)N[C@@H](CCCCN)C(=O)N2 [Compound 82] (H-S[Nle]D[Nle]RCSASVECKQKCLKAIGSIFGKC[Nle]NKKCKCYPR-OH; disulfide 6-27, 12-32, 16-34)	0.49	0.52	≤ 1

Source: patent publication US11780893B2, “Kv1.3 blockers” (Zealand Pharma A/S, priority 2019, dated 2023)
